Experimental findings from patent publication US20250163064A1, “QUINAZOLINE COMPOUNDS AND USES THEREOF AS INHIBITORS OF MUTANT KRAS PROTEINS” (AMGEN INC., priority 2022, published 2025) are described below.

Where two headings read alike, the source gives them in different places.

Assay [1] deals with Phosphorylation of ERK1/2 in AsPC-1 cells. Description: Phospho-ERK1/2 MSD Assay. The format is cell-based. In a few lines: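 AsPC-1 cells in 10% FBS RPMI 1640 were treated with a compound dose titration for 2 h at 37° C, then lysed in RIPA buffer with protease and phosphatase inhibitors. Phospho-ERK1/2 was measured by MSD whole-cell lysate immunoassay, and IC50 was derived by 4-parameter logistic fit.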

Assay [2] addresses GDP-bound KRAS protein (aa 1-169), G12D and C118A; SOS-mediated nucleotide exchange (Homo sapiens (Human), UniProt P01116, C118A/G12D). Description: KRAS G12D Coupled Nucleotide Exchange Assay. The format is biochemical. To be noted: 2 h compound pre-incubation, GTP, cRAF AlphaScreen. The essentials:
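Read-out was AlphaScreen, with IC50 derived by 4-parameter logistic fitting. Before that, SOS (aa 564-1049) and GTP drove 30 min exchange on His-tagged KRAS 1-169 carrying G12D and C118A, following a 2 h compound preincubation in 25 mM HEPES pH 7.4, 10 mM MgCl2, 0.01% Triton X-100.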
(Bead proximity is the source of the signal in Alpha formats.)

The target in assay [3] is His-tagged KRAS G12D protein (Homo sapiens (Human), UniProt P01116, G12D). Description: KRAS G12D TR-FRET Assay. The class given is binding. The following applies: biotinylated KRPep-2d, 10 μM GDP. In a few lines: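 His-KRAS G12D (20 nM working solution) preincubated with compound 30 min at rt in HEPES pH 7.4 buffer with 10 μM GDP, then biotinylated KRPep-2d added for 1 h. Eu-anti-His/streptavidin-d2 TR-FRET 665/615 ratio; IC50 from 4-parameter logistic fit.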
For orientation: In TR-FRET formats the signal depends on donor and acceptor labels being close together.

The mark [4] stands for this setting: Homo sapiens, ASPC1, 2 h, read-out: 2 h p-ERK (AsPC-1 cells), IC50 (μM), AsPC-1 cells, 2 h compound treatment.
The mark [5] stands for this setting: read-out: 2 h p-ERK (AsPC-1 cells), IC50, AsPC-1 cells, 2 h compound treatment.

Chain of GDP-bound KRAS protein (aa 1-169), G12D and C118A; SOS-mediated nucleotide exchange (P01116 other isoform, or with tags, fused parts or gaps G12D/C118A): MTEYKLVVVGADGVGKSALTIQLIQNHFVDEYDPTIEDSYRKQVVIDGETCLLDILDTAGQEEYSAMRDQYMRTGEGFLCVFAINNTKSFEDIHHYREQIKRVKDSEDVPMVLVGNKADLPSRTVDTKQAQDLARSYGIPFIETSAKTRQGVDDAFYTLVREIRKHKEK
Chain of His-tagged KRAS G12D protein (P01116-2 other isoform, or with tags, fused parts or gaps G12D): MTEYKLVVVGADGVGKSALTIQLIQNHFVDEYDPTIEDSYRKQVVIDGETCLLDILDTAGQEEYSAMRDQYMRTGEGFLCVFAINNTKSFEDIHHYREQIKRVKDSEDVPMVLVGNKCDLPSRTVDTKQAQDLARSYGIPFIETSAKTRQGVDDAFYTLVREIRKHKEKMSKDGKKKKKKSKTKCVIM

Broadly, the IC50 is the point on the concentration scale where inhibition reaches its midpoint. Regarding `N#Cc1c(N)sc2c(F)ccc(-c3c(Cl)cc4c(N5CCC[C@H]5CO)nc(OC[C@@]56CCCN5C[C@H](F)C6)nc4c3F)c12` [Example 49, 2-Amino-4-(6-chloro-8-fluoro-2-(((2R,7aS)-2-fluorotetrahydro-1H-pyrrolizin-7a(5H)-yl)methoxy)-4-((S)-2-(hydroxymethyl)pyrrolidin-1-yl)quinazolin-7-yl)-7-fluorobenzo[b] thiophene-3-carbonitrile], the IC50 in assay [1] (setting [4]) came out at 0.252 µM; in assay [2], 4 nM; in assay [3] it was 4 nM.
As to `N#CC[C@@H]1CCCN1c1nc(OC[C@@]23CCCN2C[C@H](F)C3)nc2c(F)c(-c3ccc(F)c4sc(N)c(C#N)c34)c(Cl)cc12` [Example 50, 2-Amino-4-(6-chloro-4-((S)-2-(cyanomethyl)pyrrolidin-1-yl)-8-fluoro-2-(((2R,7aS)-2-fluorotetrahydro-1H-pyrrolizin-7a(5H)-yl)methoxy)quinazolin-7-yl)-7-fluorobenzo[b] thiophene-3-carbonitrile], the IC50 in assay [1] (setting [4]) was determined as 0.307 µM; in assay [2], 7 nM; in assay [3], 7 nM.
As for `N#Cc1c(N)sc2c(F)ccc(-c3c(Cl)cc4c(N5CCCCOCC5)nc(OC[C@@]56CCCN5C[C@H](F)C6)nc4c3F)c12` [Example 51, 2-Amino-4-(6-chloro-8-fluoro-2-(((2R,7aS)-2-fluorotetrahydro-1H-pyrrolizin-7a(5H)-yl)methoxy)-4-(1,4-oxazocan-4-yl)quinazolin-7-yl)-7-fluorobenzo[b] thiophene-3-carbonitrile], the IC50 is 0.089 µM in assay [1] (setting [4]), 2 nM in assay [2] and 2 nM in assay [3].
As for `C[C@]1(CO)CCCN1c1nc(OC[C@@]23CCCN2C[C@H](F)C3)nc2c(F)c(-c3ccc(F)c4sc(N)c(C#N)c34)c(Cl)cc12` [Example 52, 2-Amino-4-(6-chloro-8-fluoro-2-(((2R,7aS)-2-fluorotetrahydro-1H-pyrrolizin-7a(5H)-yl)methoxy)-4-((R)-2-(hydroxymethyl)-2-methylpyrrolidin-1-yl)quinazolin-7-yl)-7-fluorobenzo[b] thiophene-3-carbonitrile], the IC50 in assay [1] (setting [4]) is 0.505 µM; in assay [2], 7 nM; in assay [3], 8 nM.
The matching figures for `N#Cc1c(N)sc2c(F)ccc(-c3c(Cl)cc4c(N5CCC[C@H]5C#N)nc(OC[C@@]56CCCN5C[C@H](F)C6)nc4c3F)c12` [Example 53, (2S)-1-(7-(2-Amino-3-cyano-7-fluorobenzo[b]thiophen-4-yl)-6-chloro-8-fluoro-2-(((2R,7aS)-2-fluorotetrahydro-1H-pyrrolizin-7a(5H)-yl)methoxy)quinazolin-4-yl)pyrrolidine-2-carbonitrile]: 0.119 µM, 1 nM and 1 nM.
The matching figures for `N#Cc1c(N)sc2c(F)ccc(-c3c(Cl)cc4c(N5CCC[C@@H](C#N)C5)nc(OC[C@@]56CCCN5C[C@H](F)C6)nc4c3F)c12` [Example 54, (3R)-1-(7-(2-Amino-3-cyano-7-fluorobenzo[b]thiophen-4-yl)-6-chloro-8-fluoro-2-(((2R,7aS)-2-fluorotetrahydro-1H-pyrrolizin-7a(5H)-yl)methoxy)quinazolin-4-yl)piperidine-3-carbonitrile]: 1.09 µM, 13 nM and 14 nM.
The matching figures for `N#Cc1c(N)sc2c(F)ccc(-c3c(Cl)cc4c(N5CCCOCC5)nc(OC[C@@]56CCCN5C[C@H](F)C6)nc4c3F)c12` [Example 55, 2-Amino-4-(6-chloro-8-fluoro-2-(((2R,7aS)-2-fluorotetrahydro-1H-pyrrolizin-7a(5H)-yl)methoxy)-4-(1,4-oxazepan-4-yl)quinazolin-7-yl)-7-fluorobenzo[b]thiophene-3-carbonitrile]: 0.102 µM, 8 nM and 5 nM.
In the case of `N#Cc1c(N)sc2c(F)ccc(-c3c(Cl)cc4c(N5CCCCC(C#N)C5)nc(OC[C@@]56CCCN5C[C@H](F)C6)nc4c3F)c12` (stereo partly drawn) [Example 57, 1-(7-(2-Amino-3-cyano-7-fluorobenzo[b]thiophen-4-yl)-6-chloro-8-fluoro-2-(((2R,7aS)-2-fluorotetrahydro-1H-pyrrolizin-7a(5H)-yl)methoxy)quinazolin-4-yl)azepane-3-carbonitrile], the IC50 is 0.061 µM in assay [1] (setting [4]), 3 nM in assay [2] and 3 nM in assay [3].
For `C=Cc1cc2c(N3CCOCC(C)(O)C3)nc(OC[C@@]34CCCN3C[C@H](F)C4)nc2c(F)c1-c1ccc(F)c2sc(N)c(C#N)c12` (stereo partly drawn) [Example 61, 2-Amino-7-fluoro-4-(8-fluoro-2-(((2R,7aS)-2-fluorotetrahydro-1H-pyrrolizin-7a(5H)-yl)methoxy)-4-(6-hydroxy-6-methyl-1,4-oxazepan-4-yl)-6-vinylquinazolin-7-yl)benzo[b]thiophene-3-carbonitrile], the IC50 was found to be 0.05 µM in assay [1] (setting [4]), 3 nM in assay [2] and 5 nM in assay [3].
Turning to `CCc1cc2c(N3CCOCC(C)(O)C3)nc(OC[C@@]34CCCN3C[C@H](F)C4)nc2c(F)c1-c1ccc(F)c2sc(N)c(C#N)c12` (stereo partly drawn) [Example 62, 2-Amino-4-(6-ethyl-8-fluoro-2-(((2R,7aS)-2-fluorotetrahydro-1H-pyrrolizin-7a(H)-yl)methoxy)-4-(6-hydroxy-6-methyl-1,4-oxazepan-4-yl)quinazolin-7-yl)-7-fluorobenzo[b]thiophene-3-carbonitrile], the IC50 in assay [1] (setting [5]) stood at 0.025 µM; in assay [2], 1 nM; in assay [3], 3 nM.
In the same order, the values of `CC1(O)COCCN(c2nc(OC[C@@]34CCCN3C[C@H](F)C4)nc3c(F)c(-c4ccc(F)c5sc(N)c(C#N)c45)c(O)cc23)C1` (stereo partly drawn) [Example 63, 2-Amino-7-fluoro-4-(8-fluoro-2-(((2R,7aS)-2-fluorotetrahydro-1H-pyrrolizin-7a (H)-yl)methoxy)-6-hydroxy-4-(6-hydroxy-6-methyl-1,4-oxazepan-4-yl)quinazolin-7-yl)benzo[b]thiophene-3-carbonitrile] are over 10 µM, 3 nM and 4 nM.
Take `N#Cc1c(N)sc2c(F)ccc(-c3c(Cl)cc4c(N5CCCC6(CC(O)C6)C5)nc(OC[C@@]56CCCN5C[C@H](F)C6)nc4c3F)c12` (stereo partly drawn) [Example 64, 2-Amino-4-(6-chloro-8-fluoro-2-(((2R,7aS)-2-fluorotetrahydro-1H-pyrrolizin-7a(5H)-yl)methoxy)-4-(2-hydroxy-6-azaspiro[3.5]nonan-6-yl)quinazolin-7-yl)-7-fluorobenzo[b]thiophene-3-carbonitrile]: the IC50 was 1.52 µM in assay [1] (setting [4]), 28 nM in assay [2] and 25 nM in assay [3].
The matching figures for `C[C@@H]1[C@H](O)CCN1c1nc(OC[C@@]23CCCN2C[C@H](F)C3)nc2c(F)c(-c3ccc(F)c4sc(N)c(C#N)c34)c(Cl)cc12` [Example 65, 2-Amino-4-(6-chloro-8-fluoro-2-(((2R,7aS)-2-fluorotetrahydro-1H-pyrrolizin-7a(5H)-yl)methoxy)-4-((2R,3R)-3-hydroxy-2-methylpyrrolidin-1-yl)quinazolin-7-yl)-7-fluorobenzo[b] thiophene-3-carbonitrile]: 0.33 µM, 6 nM and 12 nM.
`C[C@@H]1CCCN1c1nc(OC[C@@]23CCCN2C[C@H](F)C3)nc2c(F)c(-c3ccc(F)c4sc(N)c(C#N)c34)c(Cl)cc12` [Example 66, 2-Amino-4-(6-chloro-8-fluoro-2-(((2R,7aS)-2-fluorotetrahydro-1H-pyrrolizin-7a(5H)-yl)methoxy)-4-((R)-2-methylpyrrolidin-1-yl)quinazolin-7-yl)-7-fluorobenzo[b] thiophene-3-carbonitrile]: the IC50 in assay [1] (setting [4]) was found to be 0.586 µM; in assay [2], 16 nM; in assay [3] it was 24 nM.
In the same order, the values of `N#Cc1c(N)sc2c(F)ccc(-c3c(Cl)cc4c(C5=CCCOC5)nc(OC[C@@]56CCCN5C[C@H](F)C6)nc4c3F)c12` [Example 70, 2-Amino-4-(6-chloro-4-(5,6-dihydro-2H-pyran-3-yl)-8-fluoro-2-(((2R,7aS)-2-fluorotetrahydro-1H-pyrrolizin-7a(5H)-yl)methoxy)quinazolin-7-yl)-7-fluorobenzo[b]thiophene-3-carbonitrile bis(2,2,2-trifluoroacetate)] are 0.845 µM, 19 nM and 34 nM.
The matching figures for `N#Cc1c(N)sc2c(F)ccc(-c3c(Cl)cc4c(C5CC5)nc(OC[C@@]56CCCN5C[C@H](F)C6)nc4c3F)c12` [Example 71, 2-Amino-4-(6-chloro-4-cyclopropyl-8-fluoro-2-(((2R,7aS)-2-fluorotetrahydro-1H-pyrrolizin-7a(5H)-yl)methoxy)quinazolin-7-yl)-7-fluorobenzo[b]thiophene-3-carbonitrile bis(2,2,2-trifluoroacetate)]: 0.185 µM, 5 nM and 11 nM.
